{
  "source": "patent US10450322B2",
  "about": "“Low molecular weight derivatives of carboxamide halogenated porphyrins, namely chlorins and bacteriochlorins, and their applications thereof” (LUZITIN, S.A., priority 2015, dated 2019)",
  "key": {"[1]": {"experiment": "Triplet-triplet transient absorption / photoacoustic calorimetry", "format": "physicochemical", "experimental": "The triplet-triplet transient absorption was recorded in an Applied Photophysics LKS.60 laser flash photolysis spectrometer, with a Hewlett-Packard Infinium Oscilloscope and a Spectra-Physics Quanta-Ray GCR-130 Nd:YAG laser as excitation source. The pulse excitation was set at 355 nm.\nThe thermal energy released after electronic excitation was measured by time-resolved photoacoustic calorimetry using a front-face irradiation photoacoustic cell and a EKSPLA OPO model PG-122 pumped by an EKSPLA Nd:YAG. The signal detection was made using a 2.25 MHz Panametrics transducer. The excitation was at 690 nm and azulene was used as photoacoustic calorimetry reference.\nThis is indicative of negligible aggregation between the molecules, which exist mostly as monomers at these concentrations in the solvents studied. Table 1 presents the infrared molar absorption coefficient (εmax) and wavelength maximum in ethanol of a typical carboxamide halogenated bacteriochlorin derivative of Formula (I). The same table also presents triplet lifetimes (τT) in air and N2 saturated solutions, fluorescence lifetime (τS), the quantum yields of fluorescence (ΦF), triplet state formation (ΦT), and singlet oxygen generation (ΦΔ) in ethanol, and photodegradation quantum yield (Φpd) in methanol:PBS (3:2). Triplet decays were clearly mono-exponential and in air-saturated ethanol the triplet lifetimes were in the range of 200 to 300 nanoseconds. Such values are consistent with diffusion limited energy transfer from the triplet state of the photosensitizer to molecular oxygen through a charge-transfer interaction (8). The absorption intensity of the test compounds in the photobleaching studies followed a mono-exponential decrease as a function of the illumination time."}, "[2]": {"tested_on": "A549 (human lung adenocarcinoma) cell line", "experiment": "In vitro phototoxicity / dark toxicity towards A549 cells", "format": "cell-based", "experimental": "Phototoxicity towards cancer cell lines was evaluated in vitro using A549 (human lung adenocarcinoma) and CT26 (mouse colon adenocarcinoma) cell lines. The cells were cultured in Dulbecco's modified Eagles's medium (DMEM) supplemented with 10% heat-inactivated fetal bovine serum and 1% penicillin. Cells were plated at a density of 20,000/well and 15,000/well respectively, in flat-bottom 96-well plates. On the following day, diluted solutions of the test compound were prepared (1 mM stock) and added to the cells for 30-min incubation. […] The wells were washed two times with PBS and irradiated after 30-min of incubation using the LED light described above. Light dose was 1 J/cm^2. The medium was replaced with fresh one after irradiation and the plates were incubated for 24 h, at which time the cellular viability was assessed by resazurin method using a microplate spectrophotometer (Synergy HT Biotek).\nThis example describes the evaluation of in vitro phototoxicity of a carboxamide bacteriochlorin with formula IX after light irradiation, and their potential for PDT of cancer. The formulation employed was the same as that of Example 4. […] The phototoxicity was measured according to the description in the Materials and Methods section. The phototoxicity of the test compound was assessed in terms of the percentage of survival of the cells for various concentrations of the test compound incubated for 30 min, followed by washings with PBS, addition of the culture medium and illumination with a light dose of 1 J/cm^2."}},
  "data": [
    {"smiles": "CNC(=O)c1c2nc(c(-c3c(F)cccc3F)c3ccc(cc4nc(c(-c5c(F)cccc5F)c5ccc1[nH]5)CC4)[nH]3)CC2", "note": "[formula IX, 5-methylcarboxamide-10,20-bis-(2,6-difluorophenyl)bacteriochlorin]", "values": [
      {"measurement": "τT (N2) triplet lifetime", "setting": "[1]; N2-saturated ethanol", "value": "71 ± 5", "unit": "μs"},
      {"measurement": "τT (air) triplet lifetime", "setting": "[1]; air-saturated ethanol", "value": 210, "unit": "ns"},
      {"measurement": "ΦT triplet state formation quantum yield", "setting": "[1]; in ethanol", "value": 0.45},
      {"measurement": "IC50", "setting": "[2]; 30 min incubation, irradiated with 1 J/cm^2", "value": 2.5, "unit": "nM"},
      {"measurement": "photosensitizer concentration at which nearly all cells are killed", "setting": "[2]; A549, 30 min incubation, 1 J/cm^2 (FIG. 6)", "value": 50, "unit": "nM"},
      {"measurement": "concentration with no signs of toxicity in the dark", "setting": "[2]; A549, incubation in the dark for 30 min", "value": "up to 40 μM"}
    ]}
  ]
}
